Series [1] can be described thus: Stability in human feces (azo reduction in feces homogenate). The format is in vitro ADME. The following applies: pH 6.8, 37° C., under nitrogen. The protocol:
Biological Data 2: Stability in Human Feces
Accordingly, selected azo compounds of the invention were exposed to human feces under conditions suitable to promote azo reduction.
The human feces from two donors were homogenized in isotonic phosphate buffered saline (pH 6.8) with a ratio of 1:10 (w/v). The tubes were sealed using sealing film. Test article was dissolved in isotonic phosphate buffer (pH 6.8) to form a working solution of 20 μM (if the solubility allows). An aliquot of working solution (50 μL) was added to the human feces homogenate (50 μL) for each time point (0, 1, 2, 4, 6 and 24 h) in duplicate and placed under nitrogen for about 1 minute in order to exhaust air, and then incubated at 37° C. After incubation at each pre-set time point, 1000 μL acetonitrile containing internal standard w as added to each tube to quench reaction. Samples were vortexed and centrifuged at 3700 rpm for 10 min and the supernatant was transferred for analysis (and diluted where necessary). The concentrations of test article and its metabolite (example 3) in the supernatants were determined using LC-MS/MS method. Sulfasalazine was used as a positive control. All incubations were performed in duplicate.

The next series deals with T1, AhR (Homo sapiens, UniProt P35869).
T1 construct: HT29-Lucia AhR cells were purchased from Invivogen (cat #ht21-ahr); host or cells: HT29-Lucia AhR cells
T1 sequence (P35869 11-848): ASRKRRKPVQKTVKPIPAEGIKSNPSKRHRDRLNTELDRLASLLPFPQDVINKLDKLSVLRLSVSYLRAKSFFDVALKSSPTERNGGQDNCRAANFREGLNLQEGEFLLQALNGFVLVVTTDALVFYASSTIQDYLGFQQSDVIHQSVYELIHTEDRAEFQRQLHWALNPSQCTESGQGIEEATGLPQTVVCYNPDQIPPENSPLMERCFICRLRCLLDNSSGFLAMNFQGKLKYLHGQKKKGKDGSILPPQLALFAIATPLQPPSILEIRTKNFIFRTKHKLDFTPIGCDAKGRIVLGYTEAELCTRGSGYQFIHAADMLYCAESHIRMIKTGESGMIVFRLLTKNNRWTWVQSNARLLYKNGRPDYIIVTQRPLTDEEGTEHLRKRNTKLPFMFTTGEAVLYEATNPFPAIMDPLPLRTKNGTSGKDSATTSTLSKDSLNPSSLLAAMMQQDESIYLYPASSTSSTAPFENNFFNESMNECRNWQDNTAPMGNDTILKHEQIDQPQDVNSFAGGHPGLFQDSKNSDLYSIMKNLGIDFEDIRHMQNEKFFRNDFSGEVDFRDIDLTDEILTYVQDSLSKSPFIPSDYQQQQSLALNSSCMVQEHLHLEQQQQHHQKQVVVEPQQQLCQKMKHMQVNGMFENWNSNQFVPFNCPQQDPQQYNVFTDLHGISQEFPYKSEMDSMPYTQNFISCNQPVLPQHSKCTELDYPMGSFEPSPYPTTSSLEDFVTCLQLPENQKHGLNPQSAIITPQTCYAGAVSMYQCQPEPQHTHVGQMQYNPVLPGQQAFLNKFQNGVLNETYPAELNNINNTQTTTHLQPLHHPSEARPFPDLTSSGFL
Put plainly: HT29 AhR Reporter Assay (HT29-Lucia AhR cells, QUANTI-Luc luminescence). The format is cell-based. The settings on record: for EC50: 18-24 h, EC50 = concentration to reach half of maximum efficacy of reference compound VAF347; for Emax: read-out: HT29 AhR % efficacy. The protocol:
Biological Data 1: HT29 AhR Reporter Assay HT29-Lucia AhR cells were purchased from Invivogen (cat #ht21-ahr). […] The cell suspension was removed from growth medium and rinsed gently with pre-warmed PBS (10 mL). Pre-warmed Trypsin (1 mL) was added, and cells were held at 30° C. for about 5 min and then detached by pipette. The dissociated cell clumps were gently pipetted up and down. The cells were resuspended in pre-warmed detection medium (DMEM, 10% FBS (30 min at 56° C.), 100 U/ml penicillin, 100 μg/ml streptomycin, and test article or vehicle) and counted. A cell suspension of ˜500,000 cells/mL in Detection medium was prepared. […] Samples (20 μL/well) were pipetted into a 96-well white (opaque), and QUANTI-Luc™ (50 μL/well) was added. The plate was gently tapped and then read in a luminometer (0.1 s reading time).

[2] abbreviates: HT29-Lucia AhR cells, % efficacy = 100%*(TA-BG)/(Ref-BG), Ref = VAF347.

Like-named read-outs stand apart in the source and are kept apart here.

Consider `O=S(=O)(O)c1cc(/N=N/c2ccccc2-c2ccnc(Nc3ccc(C(F)(F)F)cc3)n2)ccc1O` [Example 50, (E)-2-hydroxy-5-((2-(2-((4-(trifluoromethyl)phenyl)amino)pyrimidin-4-yl)phenyl)diazenyl)benzenesulfonic acid], for which the “% of parent remaining after incubation for 6 h” value (shortened to “% of parent remaining”) in series [1] is 10%.
With `O=C(O)c1cccc(/N=N/c2ccccc2-c2ccnc(Nc3ccc(C(F)(F)F)cc3)n2)c1` [Example 34, (E)-3-((2-(2-((4-(trifluoromethyl)phenyl)amino)pyrimidin-4-yl)phenyl)diazenyl)benzoic acid], the “% of parent remaining” value in series [1] was determined as 95%.
In the case of `O=C(O)c1cc(O)ccc1/N=N/c1ccccc1-c1ccnc(Nc2ccc(C(F)(F)F)cc2)n1` [Example 38, (E)-5-hydroxy-2-((2-(2-((4-(trifluoromethyl)phenyl)amino)pyrimidin-4-yl)phenyl)diazenyl)benzoic acid], the “% of parent remaining” value in series [1] is on record as 4%.
As for `Nc1cccc(Nc2nccc(-c3ccccc3O)n2)c1` [Example 26, 2-(2-((3-aminophenyl)amino)pyrimidin-4-yl)phenol], on AhR (HT29-Lucia AhR cells), the EC50 (in general, the concentration that produces a half-maximal response) was more than 30 µM. Besides, at AhR (setting [2]), the Emax came to 141%.
As to `O=C(O)c1cc(/N=N/c2cccc(-c3ccnc(Nc4ccc(C(F)(F)F)cc4)n3)c2)ccc1O` [Example 27, (E)-2-hydroxy-5-((3-(2-((4-(trifluoromethyl)phenyl)amino)pyrimidin-4-yl)phenyl)diazenyl)benzoic acid], the “% of parent remaining” value in series [1] is given as 74%.
As for `Nc1ccc(-c2ccnc(Nc3ccc(C(F)(F)F)cc3)n2)cc1` [Example 1, 4-(4-aminophenyl)-N-(4-(trifluoromethyl)phenyl)pyrimidin-2-amine], at AhR (HT29-Lucia AhR cells), the EC50 is more than 30 µM. Besides, on AhR, the Emax came to 16%.
As for `Nc1ccc(-c2ccnc(Nc3ccc(C(F)(F)F)cc3)n2)cc1Cl` [Example 5, 4-(4-amino-3-chlorophenyl)-N-(4-(trifluoromethyl)phenyl)pyrimidin-2-amine], at AhR (HT29-Lucia AhR cells), the EC50 worked out at 20 µM. Moreover, the Emax at AhR (setting [2]) was determined as 46%.
Take `Nc1cc(Nc2nccc(-c3ccccc3C(=O)O)n2)ccc1C(F)(F)F` [Example 23, 2-(2-((3-amino-4-(trifluoromethyl)phenyl)amino)pyrimidin-4-yl)benzoic acid]: at AhR (HT29-Lucia AhR cells), the EC50 is more than 30 µM. Moreover, the Emax on AhR (setting [2]) turned out to be 33%.
In the case of `Nc1ccccc1-c1ccnc(Nc2ccc(C(F)(F)F)cc2)n1` [Example 3, 4-(2-aminophenyl)-N-(4-(trifluoromethyl)phenyl)pyrimidin-2-amine], the EC50 at AhR (HT29-Lucia AhR cells) came out at 1.33 µM. In addition, at AhR, the Emax is 165%.
For the molecule `Nc1ccc(O)cc1-c1ccnc(Nc2ccc(C(F)(F)F)cc2)n1` [Example 12, 4-amino-3-(2-((4-(trifluoromethyl)phenyl)amino)pyrimidin-4-yl)phenol], the EC50 at AhR (HT29-Lucia AhR cells) was more than 30 µM. On AhR, the Emax amounted to 17%.
`Nc1ccc(Nc2nccc(-c3ccccc3O)n2)cc1` [Example 25, 2-(2-((4-aminophenyl)amino)pyrimidin-4-yl)phenol]: on AhR (HT29-Lucia AhR cells), the response was half-maximal at 6.92 µM (EC50). Besides, the Emax at AhR (setting [2]) was 21%.
With `Nc1cc(Nc2nccc(-c3cccc(C(=O)O)c3)n2)ccc1C(F)(F)F` [Example 24, 3-(2-((3-amino-4-(trifluoromethyl)phenyl)amino)pyrimidin-4-yl)benzoic acid], the EC50 on AhR (HT29-Lucia AhR cells) was more than 30 µM. The Emax on AhR (setting [2]) was found to be 5%.
For `Nc1ccc(Cl)cc1-c1ccnc(Nc2ccc(C(F)(F)F)cc2)n1` [Example 4, 4-(2-amino-5-chlorophenyl)-N-(4-(trifluoromethyl)phenyl)pyrimidin-2-amine], at AhR (HT29-Lucia AhR cells), the EC50 is more than 30 µM. Also, at AhR, the Emax worked out at 18%.
`Nc1ccc(-c2ccnc(Nc3ccc(C(F)(F)F)cc3)n2)c(C(=O)O)c1` [Example 8, 5-amino-2-(2-((4-(trifluoromethyl)phenyl)amino)pyrimidin-4-yl)benzoic acid] gave an EC50 on AhR (HT29-Lucia AhR cells) of more than 30 µM. Further, the Emax on AhR (setting [2]) was 13%.
`Nc1ccc(C(=O)O)c(-c2ccnc(Nc3ccc(C(F)(F)F)cc3)n2)c1` [Example 7, 4-amino-2-(2-((4-(trifluoromethyl)phenyl)amino)pyrimidin-4-yl)benzoic acid]: on AhR (HT29-Lucia AhR cells), the EC50 is more than 30 µM. Also, the Emax on AhR (setting [2]) was 29%.
On to `O=C(O)c1ccc(O)c(/N=N/c2ccccc2-c2ccnc(Nc3ccc(C(F)(F)F)cc3)n2)c1` [Example 36, (E)-4-Hydroxy-3-((2-(2-((4-(trifluoromethyl)phenyl)amino)pyrimidin-4-yl)phenyl)diazenyl)benzoic acid], for which the “% of parent remaining” value in series [1] is listed as 19%.
For `FC(F)(F)c1ccc(Nc2nccc(-c3cccc(Cl)c3)n2)cc1` [VAF347, reference compound], the midpoint of the response on AhR (HT29-Lucia AhR cells), the EC50, lay at 0.026 µM. Besides, the Emax on AhR (setting [2]) was determined as 100%.
Consider `Nc1cccc(C(=O)O)c1-c1ccnc(Nc2ccc(C(F)(F)F)cc2)n1` [Example 9], for which the EC50 on AhR (HT29-Lucia AhR cells) was 2.62 µM. Besides, the Emax at AhR turned out to be 89%.
Turning to `Nc1cccc(-c2ccnc(Nc3cccc(C(=O)O)c3)n2)c1` [Example 20, 3-((4-(3-aminophenyl)pyrimidin-2-yl)amino)benzoic acid], the EC50 at AhR (HT29-Lucia AhR cells) was more than 30 µM. Moreover, the Emax on AhR (setting [2]) was found to be 13%.
For the molecule `Nc1cc(Nc2nccc(-c3cccc(Cl)c3)n2)ccc1C(F)(F)F` [Example 22, N^1-(4-(3-chlorophenyl)pyrimidin-2-yl)-4-(trifluoromethyl)benzene-1,3-diamine], on AhR (HT29-Lucia AhR cells), the response was half-maximal at 0.018 µM (EC50). For the same molecule, the Emax at AhR (setting [2]) turned out to be 124%.
For `Nc1ccc(CC(=O)O)c(-c2ccnc(Nc3ccc(C(F)(F)F)cc3)n2)c1` [Example 10, 2-(4-amino-2-(2-((4-(trifluoromethyl)phenyl)amino)pyrimidin-4-yl)phenyl)acetic acid] the same measures were 9.24 µM and 69%.
`CS(=O)(=O)c1ccc(N)cc1-c1ccnc(Nc2ccc(C(F)(F)F)cc2)n1` [Example 14, 4-(5-amino-2-(methylsulfonyl)phenyl)-N-(4-(trifluoromethyl)phenyl)pyrimidin-2-amine] yielded an EC50 at AhR (HT29-Lucia AhR cells) of 16.9 µM. The Emax on AhR came to 51%.
On to `Nc1cccc(-c2ccnc(Nc3ccc(C(=O)O)cc3)n2)c1` [Example 18, 4-((4-(3-aminophenyl)pyrimidin-2-yl)amino)benzoic acid], for which the EC50 at AhR (HT29-Lucia AhR cells) is more than 30 µM. In addition, at AhR (setting [2]), the Emax is 10%.
On AhR (HT29-Lucia AhR cells), `Nc1cc(Cl)cc(-c2ccnc(Nc3ccc(C(F)(F)F)cc3)n2)c1` [Example 6, 4-(3-amino-5-chlorophenyl)-N-(4-(trifluoromethyl)phenyl)pyrimidin-2-amine] displayed an EC50 of more than 30 µM. The Emax at AhR (setting [2]) was determined as 15%.
`Nc1cc(C(F)(F)F)ccc1Nc1nccc(-c2cccc(Cl)c2)n1` [Example 21, N^1-(4-(3-chlorophenyl)pyrimidin-2-yl)-4-(trifluoromethyl)benzene-1,2-diamine] came in with an EC50 on AhR (HT29-Lucia AhR cells) of more than 30 µM. Further, at AhR (setting [2]), the Emax is 27%.
Molecule `CS(=O)(=O)c1ccc(N)c(-c2ccnc(Nc3ccc(C(F)(F)F)cc3)n2)c1` [Example 13, 4-(2-amino-5-(methylsulfonyl)phenyl)-N-(4-(trifluoromethyl)phenyl)pyrimidin-2-amine] gave an EC50 on AhR (HT29-Lucia AhR cells) of more than 30 µM. Besides, on AhR, the Emax is 7%.
At AhR (HT29-Lucia AhR cells), `Nc1ccc(O)c(-c2ccnc(Nc3ccc(C(F)(F)F)cc3)n2)c1` [Example 11, 4-amino-2-(2-((4-(trifluoromethyl)phenyl)amino)pyrimidin-4-yl)phenol] registered an EC50 of more than 30 µM. Also, the Emax at AhR is -17%.

For the origin of these results see patent publication US12168646B2, “Aryl hydrocarbon receptor agonists and uses thereof” (NEXYS THERAPEUTICS, INC., priority 2022, dated 2024).
